Data from patent US11369593B2 (Texas Tech University System, priority 2017, dated 2022).

Tested on: PC12 cells
Test: Etoposide-induced apoptosis in PC12 cells, cell viability
Type: cell-based
Conditions: etoposide-induced apoptosis, PC12 cells; for viability at 0.1 µM / viability at 0.3 µM / viability at 1 µM / viability at 3 µM / viability at 10 µM / viability at 30 µM: Rattus norvegicus, PC-12; for viability at 0.1 µM / % Viability 0.1 μM: 0.1 μM compound, vehicle 52.1 ± 7.32; for viability at 0.3 µM / % Viability 0.3 μM: 0.3 μM compound; for viability at 1 µM / % Viability 1 μM: 1 μM compound; for viability at 1 µM: read-out: % Viability 1 μM; for viability at 3 µM / % Viability 3 μM: 3 μM compound; for viability at 3 µM: read-out: % Viability 3 μM; for viability at 10 µM / % Viability 10 μM: 10 μM compound; for viability at 10 µM: read-out: % Viability 10 μM; for viability at 30 µM / % Viability 30 μM: 30 μM compound; for viability at 30 µM: read-out: % Viability 30 μM

Compound | viability at 0.1 µM [%] | viability at 0.3 µM [%] | viability at 1 µM [%] | viability at 3 µM [%] | viability at 10 µM [%] | viability at 30 µM [%] | % Viability 0.1 μM [%] | % Viability 0.3 μM [%] | % Viability 1 μM [%] | % Viability 3 μM [%] | % Viability 10 μM [%] | % Viability 30 μM [%]
CCOC(=O)Nc1ccc(NCc2cccc(OC)c2)nc1N [NK-67-3, Ethyl (2-amino-6-((3-methoxybenzyl)amino)pyridin-3-yl)carbamate] | 59.2 ± 3.98 | 48.6 ± 9.49 | 82.8 ± 19.8 | 87.5 ± 15 | 70.1 ± 3.36 | 63.8 ± 14 | – | – | – | – | – | –
CCOC(=O)Nc1ccc(NCc2ccc(-c3cccs3)cc2)nc1N [AM-11-3, Ethyl (2-amino-6-((4-(thiophen-2-yl)benzyl)amino)pyridin-3-yl)carbamate] | 64.1 ± 16.6 | 77.1 ± 25.2 | 89.8 ± 30.1 | 76.1 ± 12.8 | 89 ± 29.1 | 35.3 ± 5.69 | – | – | – | – | – | –
C#CCOC(=O)Nc1ccc(NCc2ccc(F)cc2)nc1N [NK-45-1, Prop-2-yn-1-yl (2-amino-6-((4-fluorobenzyl)amino)pyridin-3-yl)carbamate] | 60.4 ± 1.29 | 57.5 ± 3.95 | 64.9 ± 11.7 | 61.9 ± 9.82 | 65.4 ± 10.7 | 64.8 ± 3.9 | – | – | – | – | – | –
CCOC(=O)Nc1ccc(NCc2ccc(F)cc2F)nc1N [NK-64-3, Ethyl (2-amino-6-((2,4-difluorobenzyl)amino)pyridin-3-yl)carbamate] | 84 ± 21.9 | 93 ± 14.1 | 91 ± 19.8 | 78 ± 16.8 | 89.2 ± 4.4 | 90.7 ± 12.7 | – | – | – | – | – | –
CCOC(=O)Nc1ccc(NCc2ccccc2)nc1N [AM-2-3, Ethyl (2-amino-6-(benzylamino)pyridin-3-yl)carbamate] | 83.2 ± 21.9 | 87.5 ± 1.65 | 93.5 ± 5.31 | 78.6 ± 10.8 | 92.2 ± 3.97 | 88.8 ± 5.02 | – | – | – | – | – | –
CCOC(=O)Nc1ccc(NCc2ccc(SC(F)(F)F)cc2)nc1N [AM-8-3, Ethyl (2-amino-6-((4-((trifluoromethyl)thio)benzyl)amino)pyridin-3-yl)carbamate] | 69 ± 9.99 | 92.6 ± 9.23 | 82.3 ± 7.02 | 79.2 ± 23.6 | 89.1 ± 2.16 | 110 ± 15.3 | – | – | – | – | – | –
Nc1nc(NCc2ccc(F)cc2)ccc1NC(=O)OCC(Cl)(Cl)Cl [NK-46-1, 2,2,2-trichloroethyl (2-amino-6-((4-fluorobenzyl)amino)pyridin-3-yl)carbamate] | 74.1 ± 9.21 | 108 ± 12.7 | 94.9 ± 8.18 | 77.2 ± 8.19 | 83.9 ± 18 | 113 ± 3.53 | – | – | – | – | – | –
CCOC(=O)Nc1ccc(NCc2ccc(OC)cc2)nc1N [AM-4-3, Ethyl (2-amino-6-((4-methoxybenzyl)amino)pyridin-3-yl)carbamate] | 86.8 ± 3.14 | 81.4 ± 13 | 71.8 ± 25.7 | 79.7 ± 10.6 | 90 ± 16.3 | 106 ± 13.3 | – | – | – | – | – | –
CCOC(=O)Nc1ccc(NCc2cccc(C)c2)nc1N [NK-66-3, Ethyl (2-amino-6-((3-methylbenzyl)amino)pyridin-3-yl)carbamate] | 94.7 ± 25.8 | 110 ± 11.3 | 101 ± 17.4 | 82.3 ± 31.4 | 86.1 ± 26.9 | 107 ± 9.4 | – | – | – | – | – | –
CCOC(=O)Nc1ccc(NCCc2ccccc2)nc1N [JG-36-4, Ethyl (2-amino-6-(phenethylamino)pyridin-3-yl)carbamate] | 52.1 ± 11.5 | 56.9 ± 12 | 69.2 ± 7.1 | 50 ± 9.09 | 59.6 ± 9.05 | 60.5 ± 5.82 | – | – | – | – | – | –
CCOC(=O)Nc1ccc(NCc2ccc(C(F)(F)F)cc2)nc1 [AM-15-3, Ethyl (6-((4-(trifluoromethyl)benzyl)amino)pyridin-3-yl)carbamate] | 59.7 ± 6.74 | 54.1 ± 12.7 | 59 ± 12.9 | 64 ± 7.87 | 66.4 ± 4.11 | 52.9 ± 8.69 | – | – | – | – | – | –
CC(C)(C)OC(=O)Nc1ccc(NCc2ccc(F)cc2)nc1N [NK-13-1, tert-butyl 6-(4-fluorobenzylamino)-2-aminopyridin-3-ylcarbamate] | 53.5 ± 9.17 | 47.6 ± 3.19 | 57.2 ± 13.6 | 42.2 ± 6.03 | 68.1 ± 21.6 | 64.4 ± 12.8 | – | – | – | – | – | –
Hexyl (2-amino-6-((4-fluorobenzyl)amino)pyridin-3-yl)carbamate [NK-42-1] | – | – | – | – | – | – | 60.08 ± 3.34 | 59.19 ± 4.95 | 87.30 ± 18.26 | 78.46 ± 11.29 | 85.14 ± 11.29 | 78.95 ± 13.17
CCOC(=O)Nc1ccc(NCc2ccc(OC(F)(F)F)cc2)nc1N [JG-33-4, Ethyl (2-amino-6-((4-(trifluoromethoxy)benzyl)amino)pyridin-3-yl)carbamate] | 71.3 ± 16.1 | 81.6 ± 10.9 | 79.8 ± 12.8 | 95.3 ± 14.6 | 88.9 ± 12.6 | 82.4 ± 12.6 | – | – | – | – | – | –
Nc1nc(NCc2ccc(F)cc2)ccc1NC(=O)OCC1c2ccccc2-c2ccccc21 [NK-43-1, (9H-fluoren-9-yl)methyl (2-amino-6-((4-fluorobenzyl)amino)pyridin-3-yl)carbamate] | 67.5 ± 6.34 | 63.9 ± 6.2 | 69 ± 10.3 | 56.4 ± 8.99 | 66.7 ± 5.97 | 49.7 ± 1.76 | – | – | – | – | – | –
CCOC(=O)Nc1ccc(OCc2ccc(C(F)(F)F)cc2)nc1N [NK-60-3, Ethyl (2-amino-6-((4-(trifluoromethyl)benzyl)oxy)pyridin-3-yl)carbamate] | 64 ± 11 | 83.8 ± 11.5 | 77.1 ± 7.31 | 69.9 ± 8.54 | 71.4 ± 19.6 | 77 ± 6.87 | – | – | – | – | – | –
CCOC(=O)Nc1ccc(NCc2ccc(-c3ccccc3)cc2)nc1N [NK-57-3, Ethyl (6-(([1,1′-biphenyl]-4-ylmethyl)amino)-2-aminopyridin-3-yl)carbamate] | 55.4 ± 14.8 | 61.7 ± 12.7 | 63.7 ± 10.1 | 48.9 ± 9.58 | 53.1 ± 14 | 62.3 ± 10.3 | – | – | – | – | – | –
CCOC(=O)Nc1ccc(NCc2ccc(C)cc2C)nc1N [NK-65-3, Ethyl (2-amino-6-((2,4-dimethylbenzyl)amino)pyridin-3-yl)carbamate] | 55.5 ± 11.3 | 56.9 ± 18.4 | 61.8 ± 9.82 | 87.9 ± 11.4 | 85.7 ± 13.2 | 65.7 ± 19 | – | – | – | – | – | –
CCOC(=O)Nc1ccc(NCc2ccc(F)cc2)nc1 [NK-31-3] | – | – | 109 ± 35.9 | 110 ± 19.4 | 101 ± 15.9 | 69.3 ± 14.9 | – | – | – | – | – | –
CCOC(=O)Nc1ccc(NC(C)c2ccccc2)nc1N (stereo not drawn) [NK-52-3, Ethyl (2-amino-6-((1-phenylethyl)amino)pyridin-3-yl)carbamate] | 50 ± 1.04 | 56 ± 4.21 | 56.7 ± 5.69 | 66.2 ± 4.77 | 53.2 ± 2.3 | 24 ± 6.78 | – | – | – | – | – | –
CCOC(=O)Nc1ccc(NCc2ccccc2C(F)(F)F)nc1N [JG-34-4, Ethyl (2-amino-6-((2-(trifluoromethyl)benzyl)amino)pyridin-3-yl)carbamate] | 74.6 ± 2.18 | 72.4 ± 16.4 | 95.1 ± 10.3 | 91.5 ± 12.9 | 95.4 ± 19.3 | 77.7 ± 6.86 | – | – | – | – | – | –
CCOC(=O)Nc1ccc(NCc2ccc3ccccc3c2)nc1N [AM-5-3, Ethyl (2-amino-6-((naphthalen-2-ylmethyl)amino)pyridin-3-yl)carbamate] | 70.5 ± 24.2 | 76.9 ± 20.8 | 81.7 ± 12.6 | 57.6 ± 6.35 | 65.1 ± 22.6 | 103 ± 1.31 | – | – | – | – | – | –
CCCCCCOC(=O)Nc1ccc(NCc2ccc(F)cc2)cc1N [NK-34-2, Hexyl (2-amino-4-((4-fluorobenzyl)amino)phenyl)carbamate] | 63 ± 11.8 | 61 ± 5.7 | 65.8 ± 6.14 | 60.1 ± 11.4 | 72.1 ± 13.4 | 73.2 ± 4.74 | – | – | – | – | – | –
Nc1nc(NCc2ccccc2C(F)(F)F)ccc1NC(=O)OCC(Cl)(Cl)Cl [JG-35-4, 2,2,2-trichloroethyl (2-amino-6-((2-(trifluoromethyl)benzyl)amino)pyridin-3-yl)carbamate] | – | – | 92.2 ± 37.2 | 108 ± 7.32 | 93.2 ± 21.6 | 71.6 ± 20.8 | – | – | – | – | – | –
CCOC(=O)Nc1ccc(N2CCOCC2)nc1N [JG-41-4, Ethyl (2-amino-6-morpholinopyridin-3-yl)carbamate] | – | – | 85.8 ± 15.5 | 88.7 ± 13.5 | 78.9 ± 14.3 | 63.9 ± 12.4 | – | – | – | – | – | –
CCOC(=O)Nc1ccc(NCc2cc(F)cc(C(F)(F)F)c2)nc1N [JG-38-4, Ethyl (2-amino-6-((3-fluoro-5-(trifluoromethyl)benzyl)amino)pyridin-3-yl)carbamate] | 69 ± 13.6 | 64.7 ± 12.5 | 69.7 ± 14.9 | 72.9 ± 13.2 | 90.1 ± 15.1 | 78.2 ± 12.5 | – | – | – | – | – | –
Ethyl (6-((4-fluorobenzyl)amino)-4-methylpyridin-3-yl)carbamate [NK-48-3] | – | – | – | – | – | – | 54.78 ± 2.77 | 57.46 ± 4.02 | 57.03 ± 1.81 | 53.80 ± 1.98 | 57.06 ± 4.28 | 63.25 ± 3.32
